Assay results as given in patent US5554542A, “Immunoassay for isothiazolones” (Rohm and Haas Company, priority 1993, dated 1996).

System: antibodies in mouse serum
Assay: Competitive inhibition ELISA (CIEIA) screening of mouse sera for isothiazolone antibodies
Format: binding, BALB/c mice
Conditions: for % Inhibition: inhibitor final 1 ppm, b98 says 10^-4 M; for Reactivity of serum antibodies toward inhibitor: serum of mouse 1E, immunized with 573-THY
Description: Blood samples were taken from the mice immunized in the above example. The sera were separated from the red blood cells by centrifugation. The sera were then screened for activity using competitive inhibition ELISA (CIEIA). Ninety-six well polystyrene EIA ([…]) plates were coated with 100 μl of 651 conjugated to BSA (651-BSA), 651 conjugated to THY (651-THY), 573 conjugated to BSA (573-BSA), or 573 conjugated to THY (573-THY) for at least two hours at room temperature or 16 hours at 4° C. Unbound material was washed from the wells with five washes of PBS-T. The wells then received 50 μl of buffer alone (PBS-T) or inhibitors, either 651 or 573, each diluted to 2 ppm in buffer. The wells then received 50 μl of mouse serum, so that each serum was reacted with either buffer, 651 or 573 (inhibitors). […] The wells were incubated for 30-60 minutes at room temperature. They were then washed five times with PBS-T to remove unbound material and each well then received 100 μl of a 1 μg/ml solution of biotinylated horse anti-mouse IgG (Vector Laboratories, Burlingame, Calif.), and the assay continued as described for the ELISA, supra.
If the antibodies in a serum were reactive with one or both of the inhibitors in solution in the wells, the antibody molecules, or a percentage of the antibody molecules, would bind to the inhibitors, and would therefore form an antibody-inhibitor complex which would stay in solution and be removed from the plate during the washing step. In such a case, the binding of the antibody to the inhibitor would reduce the number of antibody molecules available to bind to the coating antigen, 651-BSA. Because fewer antibody molecules are attached to the 651-BSA, there is a reduction in the number of biotinylated horse anti-mouse IgG molecules bound, resulting in fewer molecules of avidin-peroxidase complex being bound, resulting in reduced hydrolysis of the substrate, leading ultimately to lower absorbances. In all cases, the inhibitor concentration was 10^-4 M.

[1] = mouse 1D serum, immunogen 573-BSA, coating conjugate 573-THY
[2] = mouse 1D serum, immunogen 573-BSA, coating conjugate 651-THY
[3] = mouse 1E serum, immunogen 573-THY, coating conjugate 573-BSA
[4] = mouse 1E serum, immunogen 573-THY, coating conjugate 651-BSA
[5] = mouse 2D serum, immunogen 573-BSA, coating conjugate 651-THY
[6] = mouse 2E serum, immunogen 573-THY, coating conjugate 573-BSA
[7] = mouse 2E serum, immunogen 573-THY, coating conjugate 651-BSA

| Compound | % Inhibition [1] | % Inhibition [2] | % Inhibition [3] | % Inhibition [4] | % Inhibition [5] | % Inhibition [6] | % Inhibition [7] | Reactivity of serum antibodies toward inhibitor |
| --- | --- | --- | --- | --- | --- | --- | --- | --- |
| Cn1sc(Cl)cc1=O [compound 651, 5-chloro-2-methyl-3-isothiazolone] | 0% | 10% | 44% | 34% | 12% | 12% | 7% | reactive |
| Cn1sccc1=O [compound 573, 2-methyl-3-isothiazolone] | 12% | 0% | 21% | 28% | 0% | 10% | 12% | reactive |
